# Assay results taken from ChEMBL document CHEMBL5724914, “Linking interpersonal differences in gut microbiota composition and drug biotransformation activity” (2024).
# Key:
# [1] = (§1) The drug is tested on Z-016 corresponding to mouse gut metagenome with ENA study accession number: PRJEB37062 and ENA sample accession number: ERS12561815 for biotransformation under anaerobic condition. The drug concentrations were measured over 9 timepoints collected between 0 and 24 hours of incubation by liquid-chromatography-coupled mass spectrometry (LC–MS); conditions: 2 µM
# [2] = human gut metagenome, 24 h, 2 µM
# [3] = human gut metagenome, 24 h, 2 µM; remark: listed apart in the source
# [4] = human gut metagenome, 24 h, 2 µM; remark: listed apart in the source
# [5] = as §1, with “Z-021” for “Z-016”, “to” for “to mouse gut”, “ERS12561820” for “ERS12561815”; conditions: 2 µM
# [6] = human gut metagenome, 24 h, 2 µM; remark: listed apart in the source
# [7] = as §1, with “Z-030” for “Z-016”, “ERS12561829” for “ERS12561815”; conditions: 2 µM
# [8] = human gut metagenome, 24 h, 2 µM; remark: listed apart in the source
# [9] = as §1, with “Z-007” for “Z-016”, “rat” for “mouse”, “ERS12561807” for “ERS12561815”; conditions: 2 µM
# [10] = human gut metagenome, 24 h, 2 µM; remark: listed apart in the source
# [11] = as §1, with “WLS-069” for “Z-016”, “human” for “mouse”, “ERS12561748” for “ERS12561815”; conditions: 2 µM
# [12] = as §1, with “WLS-077” for “Z-016”, “human” for “mouse”, “ERS12561750” for “ERS12561815”; conditions: 2 µM
# [13] = human gut metagenome, 24 h, 2 µM; remark: listed apart in the source
# [14] = as §1, with “WLS-007” for “Z-016”, “human” for “mouse”, “ERS12561742” for “ERS12561815”; conditions: 2 µM
# [15] = human gut metagenome, 24 h, 2 µM; remark: listed apart in the source
# [16] = human gut metagenome, 24 h, 2 µM; remark: listed apart in the source
# [17] = as §1, with “Z-001” for “Z-016”, “ERS12561801” for “ERS12561815”; conditions: 2 µM
# [18] = human gut metagenome, 24 h, 2 µM; remark: listed apart in the source
# [19] = as §1, with “Z-023” for “Z-016”, “to” for “to mouse gut”, “ERS12561822” for “ERS12561815”; conditions: 2 µM
# [20] = human gut metagenome, 24 h, 2 µM; remark: listed apart in the source
# Further: call rule not given here.
SMILES,Bacterial Biotransformation [1],Bacterial Biotransformation [2],Bacterial Biotransformation [3],Bacterial Biotransformation [4],Bacterial Biotransformation [5],Bacterial Biotransformation [6],Bacterial Biotransformation [7],Bacterial Biotransformation [8],Bacterial Biotransformation [9],Bacterial Biotransformation [10],Bacterial Biotransformation [11],Bacterial Biotransformation [12],Bacterial Biotransformation [13],Bacterial Biotransformation [14],Bacterial Biotransformation [15],Bacterial Biotransformation [16],Bacterial Biotransformation [17],Bacterial Biotransformation [18],Bacterial Biotransformation [19],Bacterial Biotransformation [20]
CCN(C)C(=O)Oc1cccc([C@H](C)N(C)C)c1.O=C(O)C(O)C(O)C(=O)O [RIVASTIGMINE TARTRATE],Compound NOT metabolized,Compound NOT metabolized,Compound NOT metabolized,Compound metabolized,Compound NOT metabolized,Compound NOT metabolized,Compound NOT metabolized,Compound NOT metabolized,Compound NOT metabolized,Compound NOT metabolized,Compound NOT metabolized,Compound NOT metabolized,Compound metabolized,Compound NOT metabolized,Compound NOT metabolized,Compound metabolized,Compound NOT metabolized,Compound NOT metabolized,Compound NOT metabolized,Compound NOT metabolized
O=C(O)CCC(=O)O.O=C(O[C@H]1CN2CCC1CC2)N1CCc2ccccc2[C@@H]1c1ccccc1 [SOLIFENACIN SUCCINATE],Compound NOT metabolized,Compound metabolized,Compound NOT metabolized,Compound NOT metabolized,Compound metabolized,Compound metabolized,Compound NOT metabolized,Compound metabolized,Compound NOT metabolized,Compound metabolized,Compound metabolized,Compound NOT metabolized,Compound NOT metabolized,Compound metabolized,Compound NOT metabolized,Compound metabolized,Compound NOT metabolized,Compound metabolized,Compound metabolized,Compound metabolized
O=C(CCCN1CCC2(CC1)C(=O)NCN2c1ccccc1)c1ccc(F)cc1 [SPIPERONE],Compound NOT metabolized,Compound NOT metabolized,Compound NOT metabolized,Compound NOT metabolized,Compound NOT metabolized,Compound NOT metabolized,Compound NOT metabolized,Compound metabolized,Compound NOT metabolized,Compound NOT metabolized,Compound metabolized,Compound NOT metabolized,Compound metabolized,Compound NOT metabolized,Compound NOT metabolized,Compound metabolized,Compound NOT metabolized,Compound metabolized,Compound metabolized,Compound NOT metabolized

# Now from value to compound:
Bacterial Biotransformation [1],Bacterial Biotransformation [2],Bacterial Biotransformation [3],Bacterial Biotransformation [4],Bacterial Biotransformation [5],Bacterial Biotransformation [6],Bacterial Biotransformation [7],Bacterial Biotransformation [8],Bacterial Biotransformation [9],Bacterial Biotransformation [10],Bacterial Biotransformation [11],Bacterial Biotransformation [12],Bacterial Biotransformation [13],Bacterial Biotransformation [14],Bacterial Biotransformation [15],Bacterial Biotransformation [16],Bacterial Biotransformation [17],Bacterial Biotransformation [18],Bacterial Biotransformation [19],Bacterial Biotransformation [20],SMILES
Compound metabolized,Compound metabolized,Compound metabolized,Compound metabolized,Compound metabolized,Compound metabolized,Compound NOT metabolized,Compound metabolized,Compound metabolized,Compound metabolized,Compound metabolized,Compound metabolized,Compound metabolized,Compound metabolized,Compound NOT metabolized,Compound metabolized,Compound metabolized,Compound metabolized,Compound metabolized,Compound metabolized,CCOc1cc(CC(=O)N[C@@H](CC(C)C)c2ccccc2N2CCCCC2)ccc1C(=O)O [REPAGLINIDE]
Compound NOT metabolized,Compound NOT metabolized,Compound NOT metabolized,Compound NOT metabolized,Compound NOT metabolized,Compound NOT metabolized,Compound NOT metabolized,Compound NOT metabolized,Compound NOT metabolized,Compound NOT metabolized,Compound NOT metabolized,Compound NOT metabolized,Compound NOT metabolized,Compound NOT metabolized,Compound NOT metabolized,Compound NOT metabolized,Compound NOT metabolized,Compound NOT metabolized,Compound NOT metabolized,Compound NOT metabolized,CC(N)C12CC3CC(CC(C3)C1)C2 (stereo not given) [RIMANTADINE]
Compound NOT metabolized,Compound NOT metabolized,Compound NOT metabolized,Compound NOT metabolized,Compound NOT metabolized,Compound NOT metabolized,Compound NOT metabolized,Compound NOT metabolized,Compound NOT metabolized,Compound NOT metabolized,Compound NOT metabolized,Compound NOT metabolized,Compound NOT metabolized,Compound NOT metabolized,Compound NOT metabolized,Compound metabolized,Compound NOT metabolized,Compound metabolized,Compound NOT metabolized,Compound NOT metabolized,CCCN(CCC)CCc1cccc2c1CC(=O)N2 [ROPINIROLE]
Compound NOT metabolized,Compound metabolized,Compound NOT metabolized,Compound NOT metabolized,Compound metabolized,Compound NOT metabolized,Compound NOT metabolized,Compound metabolized,Compound NOT metabolized,Compound metabolized,Compound metabolized,Compound metabolized,Compound metabolized,Compound metabolized,Compound NOT metabolized,Compound NOT metabolized,Compound NOT metabolized,Compound metabolized,Compound metabolized,Compound NOT metabolized,CN[C@H]1CC[C@@H](c2ccc(Cl)c(Cl)c2)c2ccccc21 [SERTRALINE]
